In US20220296584A1, “Membrane Active Molecules” (priority 2017, published 2022):

Test system: Tadpoles
Assay: Tadpole movement suppression (anesthetic efficacy)
Type: in vivo
Description: Tadpoles were placed in a petri dish containing aquarium water. Four to eight tadpoles were placed in each petri dish. The aquarium water contained the specified test compound at the listed concentration. When the tadpoles stopped moving, a plastic rod was used to elicit motion once again by contact between the rod and tadpole. […] From this and the number of subjects, the percent of tadpoles in which movement was suppressed were calculated.
After 1 to 30 minutes, they were again contacted with a rod to ensure the anesthetic effect had worn off
In some examples, subanesthetic concentrations of ethanol were added into the aquarium water. Tadpoles in which movement was prevented with exposure to a test compound and ethanol but not with exposure to a test compound alone were classified as partial anesthetics.

[1] = Concentration (mM): 12.5 + 150 EtOH
[2] = Concentration (mM): 50 + 150 EtOH
[3] = Concentration (mM): 25 + 150 EtOH
[4] = Concentration (mM): 125 + 150 EtOH

## Guanidine
Concentration (mM): 62.5
  Movement suppressed (%): 0%

## CC(C)(C)CC(=O)O [3,3-Dimethylbutyric acid, 3,3-Dimethylbutanoic acid]
Concentration (mM): 25
  Movement suppressed (%): 100%

## O=C(O)c1cc(O)c2ccccc2n1 [Kynurenic acid, 4-hydroxyquinoline-2-carboxylic acid]
Concentration (mM): 12.5
  Movement suppressed (%): 0%
[1]
  Movement suppressed (%): 100%

## CC(C)(O)CC(=O)O [3-Hydroxy-3-methylbutyric acid, 3-Hydroxy-3-methylbutanoic acid]
Concentration (mM): 1.6
  Movement suppressed (%): 0%
Concentration (mM): 6.25
  Movement suppressed (%): 0%
Concentration (mM): 25
  Movement suppressed (%): 0%
[2]
  Movement suppressed (%): 100%
Concentration (mM): 100
  Movement suppressed (%): 100%

## Fumaric acid
Concentration (mM): 25
  Movement suppressed (%): 40%

## Cc1ccc(C(=O)NCC(=O)O)cc1 [4-Methylhippuric acid, (4-Methylbenzoyl)glycine]
[3]
  Movement suppressed (%): 33%
Concentration (mM): 50
  Movement suppressed (%): 0%
[2]
  Movement suppressed (%): 100%
Concentration (mM): 150 EtOH (no test compound concentration printed)
  Movement suppressed (%): 0%

## N=C(N)NCCC[C@H](N)C(=O)O [Arginine]
Concentration (mM): 46.5
  Movement suppressed (%): 0%
Concentration (mM): 192 + 150 EtOH
  Movement suppressed (%): 83%

## O=C(O)c1ccc2ccccc2n1 [Quinaldic acid, Quinoline-2-carboxylic acid]
Concentration (mM): 25
  Movement suppressed (%): 16%
[3]
  Movement suppressed (%): 60%

## O=C(O)CCCC(=O)O [Glutaric acid]
Concentration (mM): 7.8
  Movement suppressed (%): 0%
Concentration (mM): 31
  Movement suppressed (%): 0%
Concentration (mM): 125
  Movement suppressed (%): 0%
[4]
  Movement suppressed (%): 60%

## O=C(O)C(O)c1ccccc1 (stereo not drawn) [Mandelic acid, 2-Hydroxy-2-phenylacetic acid]
Concentration (mM): 250
  Movement suppressed (%): 0%
Concentration (mM): 300
  Movement suppressed (%): 100%
Concentration (mM): 500
  Movement suppressed (%): 100%

## C[C@H](O)CC(=O)O [S-3-hydroxybutyric acid, (S)-3-Hydroxybutanoic acid]
Concentration (mM): 100
  Movement suppressed (%): 0%
Concentration (mM): 200
  Movement suppressed (%): 0%
Concentration (mM): 250
  Movement suppressed (%): 14%
Concentration (mM): 300
  Movement suppressed (%): 17%
Concentration (mM): 350
  Movement suppressed (%): 50%
Concentration (mM): 400
  Movement suppressed (%): 92%
Concentration (mM): 500
  Movement suppressed (%): 100%

## O=C(NC(O)C(=O)O)c1ccccc1 (stereo not drawn) [Alpha-Hydroxyhippuric acid, 2-Benzamido-2-hydroxyacetic acid]
Concentration (mM): 5
  Movement suppressed (%): 33%
Concentration (mM): 5 + 20 EtOH
  Movement suppressed (%): 66%
Concentration (mM): 10
  Movement suppressed (%): 100%

## Cc1cccc(C(=O)NCC(=O)O)c1 [3-Methylhippuric acid, (3-Methylbenzoyl)glycine]
Concentration (mM): 3.125
  Movement suppressed (%): 0%
Concentration (mM): 3.125 + 150 EtOH
  Movement suppressed (%): 100%

## C[C@H](N)C(=O)O [Alanine]
Concentration (mM): 62.5 + 150 EtOH
  Movement suppressed (%): 20%
[4]
  Movement suppressed (%): 80%

## O=C(O)CC(=O)C(=O)O [Oxaloacetic acid, 2-Oxosuccinic acid]
[4]
  Movement suppressed (%): 100%

## O=C(O)CCC(=O)C(=O)O [2-Oxoglutaric acid]
Concentration (mM): 200 + 150 EtOH
  Movement suppressed (%): 86%
Concentration (mM): 250 + 150 EtOH
  Movement suppressed (%): 100%

## C[C@@H](O)CC(=O)O [R-3-hydroxybutyric acid, (R)-3-Hydroxybutanoic acid]
Concentration (mM): 100
  Movement suppressed (%): 0%
Concentration (mM): 200
  Movement suppressed (%): 0%
Concentration (mM): 250
  Movement suppressed (%): 0%
Concentration (mM): 300
  Movement suppressed (%): 0%
Concentration (mM): 350
  Movement suppressed (%): 0%
Concentration (mM): 400
  Movement suppressed (%): 46%
Concentration (mM): 500
  Movement suppressed (%): 100%

## CCO [Ethanol control, ethanol, reference compound]
Concentration (mM): 100
  Movement suppressed (%): 0%
Concentration (mM): 150
  Movement suppressed (%): 0%
Concentration (mM): 200
  Movement suppressed (%): 0%
Concentration (mM): 250
  Movement suppressed (%): 33%

## CCC(C)C(=O)C(=O)O (stereo not drawn) [3-Methyl-2-oxovaleric acid, 3-Methyl-2-oxopentanoic acid]
Concentration (mM): 250
  Movement suppressed (%): 33%

## N[C@@H](CCC(=O)O)C(=O)O [Glutamate, Glutamic acid]
[2]
  Movement suppressed (%): 100%

## O=C(O)CCCCCCC(=O)O [Suberic acid, Octanedioic acid]
Concentration (mM): 10
  Movement suppressed (%): 50%

## O=C(O)Cc1c[nH]c2ccccc12 [Indole-3-acetic acid, 2-(1H-indol-3-yl)acetic acid]
Concentration (mM): 12.5
  Movement suppressed (%): 0%
[1]
  Movement suppressed (%): 100%

## CCC(O)C(=O)O (stereo not drawn) [2-Hydroxybutyric acid, 2-hydroxybutyric acid]
Concentration (mM): 125
  Movement suppressed (%): 0%
[4]
  Movement suppressed (%): 86%
